In patent US20050049198A1, “Method of modulating the activity of calcium channels in cardiac cells and reagents therefor” (priority 2001, published 2005):
Entries after “also recorded” stand apart in the source; their conditions may differ. Where no end group is shown, it is not given here. [ ]: non-standard residue; d: D form.

Experiments:
[1] = tested on: RyR channels of cardiac SR vesicles; assay: Ca2+ release from cardiac SR vesicles; type: biochemical, sheep; conditions: for Ca2+-activated Ca2+ release / caffeine-activated Ca2+ release: 20 μM Ca2+ or 2 mM caffeine plus peptide; for initial rate of Ca2+ release, peptide alone: 30 μM and 50 μM peptide, no additional activating factors; for rate of Ca2+ release in the absence of activating Ca2+ or caffeine: high concentrations of >30 μM peptide
Experimental: Extravesicular [Ca^2+] was monitored at 710 nm using either a Cary 50 or Cary 100 spectrophotometer. […] Vesicles were loaded with Ca^2+ by 4 additions of 3 μl aliquots of 5 mM CaCl2, to a final concentration of 7.5 μM Ca^2+. Thapsigargin (200 nM) was then added to block the SR Ca^2+ ATPase. Finally the peptides were added either alone, or with 20 μM Ca^2+ or 2 mM caffeine. The rate of Ca^2+ release in the presence of thapsigargin was measured just before addition of the activating agents and initial rates of Ca^2+ release were measured immediately after addition of the activating agents. The specific blocker of RyR activity, […] ruthenium red, was then added to confirm that Ca^2+ release was through RyR channels. The Ca^+ ionophore A23187 (3 μg/ml) was added at the end of the experiment to determine the amount of Ca^2+ remaining in the SR vesicles. When Ca^2+ release was complete, the Ca^2+ transient following addition of the ionophore, was indicative of the fraction of vesicles containing Ca^2+ that could not be released through RyR channel (presumably vesicles from longitudinal SR that lack RyR channels). […] Experiments were repeated on vesicles isolated from 3 different sheep heart preparations.

cardiac RyR2 channel = assay: Single channel activity of cardiac RyR2 channels in lipid bilayers; type: biochemical, sheep; conditions: for effect on cardiac RyR2 channel activity: cis 10^−7M Ca2+
Experimental: SR vesicles were isolated from sheep heart as described by Layer et al. (1995, J. Membr. Biol. 147:7-22).
Experiments were carried out at 20° C. to 25° C., essentially according to Ahern et al. (1994, FEBS Lett. 352:369-374) and Layer et al. (1995, J. Membr. Biol. 147:7-22). Bilayers were formed from phosphatidylethanolamine, phosphatidylserine and phosphatidylcholine (5:3:2 w/w/w) (Avanti Polar Lipids, Alabaster, Ala.) across an aperture with a diameter of […] in the wall of a 1.0 ml Delrin cup (Cadillac Plastics, Australia). Terminal cisternae (TC) vesicles (final concentration, 10 μg/ml) and drugs were added to the cytoplasmic (i.e. cis) chamber. The bilayer potential was controlled, and single channel activity recorded, using an Axopatch 200A amplifier (Axon Instruments, Foster City, Calif.). For experimental purposes, the cis chamber was held at ground and the voltage of the lumen (i.e. trans) chamber controlled. Bilayer potential is expressed in the conventional way as Vcis−Vtrans, (i.e. Vcytoplasm−Vlumen).
Bilayers were formed as described above and vesicles were incorporated into the bilayer using a cis solution containing 230 mM Cs methanesulphonate (MS), 20 mM CsCl, 1 mM CaCl2 and 10 mM N-tris[hydroxymethyl]methyl-2-aminoethanesulfonic acid (TES, pH 7.4 with CsOH), and a trans solution containing 30 mM Cs MS, 20 mM CsCl, 1 mM CaCl2 and 10 mM TES (pH7.4).
To prevent incorporation of multiple channels into the bilayer, the cis solution was replaced by perfusion of the cis chamber when channel activity was observed. The cis perfusion solution was identical to the initial cis solution, except that the [Ca^2+] was 3×10^−7M, buffered using 1 mM BAPTA. CsMS (200 mM) was added to the trans chamber following channel incorporation to produce symmetrical solutions.
Bilayer potential was changed every 30 s, over 2 min following each addition of peptide to the cis chamber. Control activity was recorded for 2 min after addition of 200 mM CsMS to the trans chamber. Activity was then recorded for 2 min after cis addition of each aliquot of peptide (six different peptide concentrations were examined in each channel). Peptides were perfused out of the cis chamber, and the recovery recorded. Channels were finally exposed to 30 μM ruthenium red.
Currents were filtered at 1 kHz (8-pole low pass Bessel, −3 dB) and digitized at 5 kHz. Analysis of single channel records (using Channel 2, developed by P W Gage and M Smith) yielded channel open probability (Po), frequency of events (Fo), open times, closed times and mean open or closed times (To or Tc) as well as mean current (I′). The event discriminator was set above the baseline noise at ˜20% of the maximum current, rather than the usual 50%, and so openings to both sub conductance and maximum conductance levels were included in the analysis. Channel activity was analyzed over two 30 s periods of continuous activity at +40 mV and two 30 s periods of continuous activity at −40 mV.
The Ca^2+ concentration in the cis solution was either buffered at 100 nM or was adjusted to 100 μM by adding an CaCl2 to the cis solution in the absence of BAPTA.

cardiac SR = cardiac SR (Homo sapiens, UniProt Q92736); conditions: cited from earlier work
Sequence of cardiac SR (Q92736 whole entry): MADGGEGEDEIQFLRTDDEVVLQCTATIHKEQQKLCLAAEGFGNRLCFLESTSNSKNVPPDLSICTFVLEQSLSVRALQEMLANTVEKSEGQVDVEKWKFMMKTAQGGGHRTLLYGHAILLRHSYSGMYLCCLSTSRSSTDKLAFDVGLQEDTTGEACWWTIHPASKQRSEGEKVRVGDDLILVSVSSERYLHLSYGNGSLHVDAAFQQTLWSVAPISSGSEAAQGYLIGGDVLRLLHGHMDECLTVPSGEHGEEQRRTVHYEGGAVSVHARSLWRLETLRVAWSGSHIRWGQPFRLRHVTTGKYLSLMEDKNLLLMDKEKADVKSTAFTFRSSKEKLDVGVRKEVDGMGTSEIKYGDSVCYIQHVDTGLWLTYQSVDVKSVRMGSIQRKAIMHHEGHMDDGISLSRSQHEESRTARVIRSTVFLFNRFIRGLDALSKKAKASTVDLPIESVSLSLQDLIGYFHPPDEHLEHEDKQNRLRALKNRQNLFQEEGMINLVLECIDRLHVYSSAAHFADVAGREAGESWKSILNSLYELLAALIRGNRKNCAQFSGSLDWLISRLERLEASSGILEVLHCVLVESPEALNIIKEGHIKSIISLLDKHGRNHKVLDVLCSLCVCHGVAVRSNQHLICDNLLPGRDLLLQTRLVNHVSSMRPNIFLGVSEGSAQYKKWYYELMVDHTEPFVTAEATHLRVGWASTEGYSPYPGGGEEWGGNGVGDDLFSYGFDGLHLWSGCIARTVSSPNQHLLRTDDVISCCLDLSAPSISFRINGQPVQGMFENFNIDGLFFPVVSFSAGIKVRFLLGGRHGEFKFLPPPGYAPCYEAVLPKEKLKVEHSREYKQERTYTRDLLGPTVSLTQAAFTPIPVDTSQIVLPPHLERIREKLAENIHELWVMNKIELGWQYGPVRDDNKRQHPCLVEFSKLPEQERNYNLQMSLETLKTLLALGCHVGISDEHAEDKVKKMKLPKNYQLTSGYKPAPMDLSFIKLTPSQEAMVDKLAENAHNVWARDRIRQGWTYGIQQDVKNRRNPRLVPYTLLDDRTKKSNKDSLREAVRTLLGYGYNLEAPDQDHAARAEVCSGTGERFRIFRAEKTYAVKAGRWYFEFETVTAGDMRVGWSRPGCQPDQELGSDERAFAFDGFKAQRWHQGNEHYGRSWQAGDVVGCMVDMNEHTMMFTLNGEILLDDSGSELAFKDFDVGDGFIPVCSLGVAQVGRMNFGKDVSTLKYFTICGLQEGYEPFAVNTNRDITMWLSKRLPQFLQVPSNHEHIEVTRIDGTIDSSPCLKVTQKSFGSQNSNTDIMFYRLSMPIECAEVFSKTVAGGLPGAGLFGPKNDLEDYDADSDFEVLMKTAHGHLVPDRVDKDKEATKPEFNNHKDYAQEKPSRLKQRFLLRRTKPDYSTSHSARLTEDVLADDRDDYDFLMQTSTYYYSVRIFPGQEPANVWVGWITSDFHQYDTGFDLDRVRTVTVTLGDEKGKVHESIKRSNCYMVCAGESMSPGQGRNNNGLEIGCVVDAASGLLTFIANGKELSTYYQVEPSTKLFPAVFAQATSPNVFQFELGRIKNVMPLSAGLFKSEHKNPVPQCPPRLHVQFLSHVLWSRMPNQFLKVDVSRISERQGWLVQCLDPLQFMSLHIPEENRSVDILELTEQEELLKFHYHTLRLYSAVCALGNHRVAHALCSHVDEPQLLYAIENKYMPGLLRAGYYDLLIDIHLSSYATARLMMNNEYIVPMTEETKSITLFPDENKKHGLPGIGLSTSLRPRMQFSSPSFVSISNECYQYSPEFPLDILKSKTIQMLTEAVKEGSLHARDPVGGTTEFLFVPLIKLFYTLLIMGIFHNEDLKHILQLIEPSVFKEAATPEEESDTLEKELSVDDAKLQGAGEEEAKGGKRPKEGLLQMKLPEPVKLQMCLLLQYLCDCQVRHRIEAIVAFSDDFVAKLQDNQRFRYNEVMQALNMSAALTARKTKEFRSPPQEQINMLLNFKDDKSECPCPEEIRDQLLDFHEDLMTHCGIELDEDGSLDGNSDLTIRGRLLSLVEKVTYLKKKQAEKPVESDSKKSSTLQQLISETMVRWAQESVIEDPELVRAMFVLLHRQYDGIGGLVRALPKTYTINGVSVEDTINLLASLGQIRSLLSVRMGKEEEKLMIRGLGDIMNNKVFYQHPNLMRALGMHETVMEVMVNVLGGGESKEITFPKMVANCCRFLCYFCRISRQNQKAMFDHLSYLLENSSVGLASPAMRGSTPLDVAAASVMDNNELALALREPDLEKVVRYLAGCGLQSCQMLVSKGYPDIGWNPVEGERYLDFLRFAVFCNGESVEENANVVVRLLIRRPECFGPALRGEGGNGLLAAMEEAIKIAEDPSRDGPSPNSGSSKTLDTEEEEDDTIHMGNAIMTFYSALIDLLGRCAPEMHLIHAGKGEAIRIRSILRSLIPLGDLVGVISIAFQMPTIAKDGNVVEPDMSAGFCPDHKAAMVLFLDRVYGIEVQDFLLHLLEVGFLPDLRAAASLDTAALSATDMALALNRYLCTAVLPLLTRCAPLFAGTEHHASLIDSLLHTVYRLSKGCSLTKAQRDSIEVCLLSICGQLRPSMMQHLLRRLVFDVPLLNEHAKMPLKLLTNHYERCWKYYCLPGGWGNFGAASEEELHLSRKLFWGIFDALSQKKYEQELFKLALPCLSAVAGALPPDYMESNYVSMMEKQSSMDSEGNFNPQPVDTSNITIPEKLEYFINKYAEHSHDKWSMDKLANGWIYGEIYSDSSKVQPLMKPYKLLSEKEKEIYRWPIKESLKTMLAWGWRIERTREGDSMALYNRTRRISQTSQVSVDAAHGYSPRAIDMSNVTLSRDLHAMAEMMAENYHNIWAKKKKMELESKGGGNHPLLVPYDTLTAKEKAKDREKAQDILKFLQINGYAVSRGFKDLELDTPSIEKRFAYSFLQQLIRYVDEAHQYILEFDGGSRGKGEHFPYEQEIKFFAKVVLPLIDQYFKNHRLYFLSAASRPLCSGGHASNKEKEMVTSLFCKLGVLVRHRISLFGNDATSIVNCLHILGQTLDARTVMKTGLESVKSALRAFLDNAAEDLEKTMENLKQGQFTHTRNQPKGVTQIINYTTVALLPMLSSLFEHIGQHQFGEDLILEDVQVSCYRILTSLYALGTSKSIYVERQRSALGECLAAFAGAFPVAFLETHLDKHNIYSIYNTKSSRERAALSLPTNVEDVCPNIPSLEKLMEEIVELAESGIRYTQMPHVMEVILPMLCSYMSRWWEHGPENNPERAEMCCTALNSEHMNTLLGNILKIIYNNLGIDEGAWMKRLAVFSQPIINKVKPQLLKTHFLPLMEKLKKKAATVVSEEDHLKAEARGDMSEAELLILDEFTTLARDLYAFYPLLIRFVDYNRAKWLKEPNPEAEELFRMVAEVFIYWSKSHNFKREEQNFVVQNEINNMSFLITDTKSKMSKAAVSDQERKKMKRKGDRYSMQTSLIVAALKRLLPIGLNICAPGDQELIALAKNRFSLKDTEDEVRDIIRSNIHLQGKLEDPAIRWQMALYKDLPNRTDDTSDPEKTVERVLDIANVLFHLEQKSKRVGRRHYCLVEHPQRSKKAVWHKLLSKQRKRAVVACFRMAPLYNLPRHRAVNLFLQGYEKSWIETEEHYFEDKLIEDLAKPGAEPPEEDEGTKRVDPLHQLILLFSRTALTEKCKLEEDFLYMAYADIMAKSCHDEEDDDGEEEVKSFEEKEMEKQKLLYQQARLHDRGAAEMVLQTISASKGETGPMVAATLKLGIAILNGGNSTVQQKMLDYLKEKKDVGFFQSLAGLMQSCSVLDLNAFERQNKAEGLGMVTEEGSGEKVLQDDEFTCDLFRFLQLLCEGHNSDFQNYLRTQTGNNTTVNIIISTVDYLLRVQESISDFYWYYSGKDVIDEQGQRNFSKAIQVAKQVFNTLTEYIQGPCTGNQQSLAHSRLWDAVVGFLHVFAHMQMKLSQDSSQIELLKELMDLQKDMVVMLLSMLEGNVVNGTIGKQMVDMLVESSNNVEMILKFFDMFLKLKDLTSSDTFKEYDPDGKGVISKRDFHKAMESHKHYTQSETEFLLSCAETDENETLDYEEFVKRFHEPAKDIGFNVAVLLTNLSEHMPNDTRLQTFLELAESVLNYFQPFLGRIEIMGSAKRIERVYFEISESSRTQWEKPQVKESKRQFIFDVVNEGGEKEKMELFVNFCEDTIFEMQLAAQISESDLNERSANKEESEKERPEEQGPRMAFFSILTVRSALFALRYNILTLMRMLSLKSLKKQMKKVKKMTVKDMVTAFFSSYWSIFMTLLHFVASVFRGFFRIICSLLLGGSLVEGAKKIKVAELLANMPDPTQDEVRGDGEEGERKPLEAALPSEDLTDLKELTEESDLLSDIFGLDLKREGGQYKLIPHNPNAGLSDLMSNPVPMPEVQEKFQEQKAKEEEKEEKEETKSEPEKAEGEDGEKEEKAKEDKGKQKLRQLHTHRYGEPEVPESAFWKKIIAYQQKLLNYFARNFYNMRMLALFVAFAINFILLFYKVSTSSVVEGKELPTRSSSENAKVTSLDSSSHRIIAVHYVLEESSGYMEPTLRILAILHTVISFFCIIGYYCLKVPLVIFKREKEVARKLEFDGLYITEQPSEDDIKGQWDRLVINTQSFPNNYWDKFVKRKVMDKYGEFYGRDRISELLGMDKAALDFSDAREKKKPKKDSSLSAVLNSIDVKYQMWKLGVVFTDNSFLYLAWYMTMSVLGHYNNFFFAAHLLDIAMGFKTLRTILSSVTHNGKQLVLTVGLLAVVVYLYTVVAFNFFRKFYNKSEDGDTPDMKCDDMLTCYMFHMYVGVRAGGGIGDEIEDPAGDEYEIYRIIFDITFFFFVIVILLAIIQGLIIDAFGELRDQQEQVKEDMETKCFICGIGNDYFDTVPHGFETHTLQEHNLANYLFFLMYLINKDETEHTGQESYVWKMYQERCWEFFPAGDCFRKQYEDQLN

cardiac RyR2 channels = cardiac RyR2 channels (Homo sapiens, UniProt Q92736); conditions: cited from earlier work
Sequence of cardiac RyR2 channels (Q92736 whole entry): as above

RyR2 = RyR2 (Homo sapiens, UniProt Q92736); conditions: cited from earlier work
Sequence of RyR2 (Q92736 whole entry, species assumed): as the sequence (Q92736 whole entry) above

[2] = target: cardiac ryanodine receptor (RyR2) calcium channel from sheep heart SR vesicles (sheep, UniProt A0ACI6Q5I6 1-4956); assay: cell-based or functional assay

For `Cn1c(=O)c2c(ncn2C)n(C)c1=O` [caffeine, reference compound], the “initial rate of Ca2+ release” value ([1]; 2 mM caffeine, no peptide) was 10 μmoles of Ca^2+ per mg of SR protein per min.

In the case of `N.N.N.N.N.N.N.N.N.N.N.N.N.N.[Cl-].[Cl-].[Cl-].[Cl-].[Cl-].[Cl-].[O-2].[O-2].[Ru+3].[Ru+3].[Ru+4]` [ruthenium red, reference compound], the “effect on Ca2+ release” value ([1]; added after activating agents) is reported as “terminated” and the “effect on RyR channel” value (cardiac RyR2 channel; 30 μM, end of experiment) is reported as “block the channel”.

For “GLPDKTEEEKSVMAKKLEQK [peptide NB, non-specific peptide; the N-terminal portion of the B segment of the II-III loop, reference compound]”, the channel activity (cardiac RyR2 channel; 1 μM or 10 μM cis peptide, +40 mV or −40 mV) was “no modified channel activity”.

For “TRKSRLARGQKAKAKSEMRE [Peptide A1S, reference compound]”, the “bilayers in which channel activity was reduced” value (cardiac RyR2 channel; 1 μM or 10 μM cis peptide) was 2 out of 2 and the “cardiac RyR2 channel activity” value (cardiac RyR2 channel; 1 μM or 10 μM cis peptide) was “reduced cardiac RyR2 channel activity”.

In the case of “TSAQKAKAEERKRRKMARDGL (TSAQKAKAEERKRRKMA[dR]GL) [SEQ ID NO: 10]”, the “Ca2+-activated Ca2+ release / caffeine-activated Ca2+ release” value [1] is reported as “also enhanced”, the “initial rate of Ca2+ release, peptide alone” value (shortened to “initial rate … peptide alone”) [1] is reported as “small increase” and the “rate of Ca2+ release in the absence of activating Ca2+ or caffeine” value [1] is reported as “marginally enhanced”.

For TSAQKAKAEERKRRKMARGL [SEQ ID NO: 8], the “initial rate … peptide alone” value [1] was “small increase”.

With “TSAQKAKAEERKRRKMSRDGL (TSAQKAKAEERKRRKMS[dR]GL) [SEQ ID NO: 9]” the “Ca2+-activated Ca2+ release / caffeine-activated Ca2+ release” value [1] was “also enhanced”, the “initial rate … peptide alone” value [1] was “small increase” and the “rate of Ca2+ release in the absence of activating Ca2+ or caffeine” value [1] was “marginally enhanced”. For the same molecule, the “channel activity (relative mean current)” value (cardiac RyR2 channel; 100 nM cis Ca2+) was “clearly enhanced”, the channel activity (cardiac RyR2 channel; 100 nM cis Ca2+, 10 nM peptide) was “significant increase in activity” and the “relative mean current at higher peptide concentrations” value (cardiac RyR2 channel; 100 nM cis Ca2+, 1 and 10 μM peptide, +40 mV) was “fall”. For the same molecule, the “peptide concentration at which depression was seen” value (cardiac RyR2 channel; 100 nM cis Ca2+, +40 mV) was > 100 nM, the “increase in relative mean current” value (cardiac RyR2 channel; 100 nM cis Ca2+, both positive and negative potentials) was 10-20 fold and the “channel activity (relative mean current)” value (cardiac RyR2 channel; 100 μM cis Ca2+) was “failed to activate channels; also recorded: clearly depressed”. The “peptide concentration of maximum effect (depression)” value (cardiac RyR2 channel; 100 μM cis Ca2+) was 100 nM, the “voltage dependence of reduction in channel activity” value (cardiac RyR2 channel; 100 μM cis Ca2+) was “greater at +40 mV than −40 mV; also recorded: significantly greater at +40 mV” and the frequency of events (cardiac RyR2 channel; +40 mV and −40 mV) was “corresponding increase”. For the same molecule, the “effect at high peptide concentrations” value (cardiac RyR2 channel; +40 mV, voltage- and Ca2+-dependent) was “blocked the channel pore” and the “peptide concentrations enhancing cardiac RyR activity in lipid bilayer” value (cardiac RyR2 channel; low concentrations) was 1 to 10 nM.

In the case of “TSAQKAKAEERKRRKMSRGL [SEQ ID NO: 2, 20-mer peptide (Thr671 to Leu690) of the II-III cytoplasmic loop of human skeletal muscle DHPR]”, the “initial rate … peptide alone” value [1] is given as “small increase”, the “induction of Ca2+ release from cardiac SR” value (cardiac SR) is given as “not to induce” and the “bilayer samples with similar activation and inhibition” value (cardiac RyR2 channel) is given as 8 out of 8. The “lowest peptide concentration at which activation of cardiac RyR2 was observed” value (cardiac RyR2 channel) was 1 nM, the “peptide concentration above which channel opening began to decline” value (cardiac RyR2 channel; +40 mV) was “above 100 nM” and the frequency of opening (cardiac RyR2 channel; +40 mV and −40 mV, after peptide addition to cis chamber) was “higher frequency of opening”. The normalized mean current (cardiac RyR2 channel; +40 mV, 10 nM peptide) was “doubled”, the channel activity (cardiac RyR2 channel; +40 mV, 65 nM peptide) was “increased; also recorded: mostly in the open configuration” and the channel openings (cardiac RyR2 channel; +40 mV, 10 μM peptide) was “only a few brief channel openings”. For the same molecule, the channel configuration (cardiac RyR2 channel; +40 mV, 32.5 μM peptide) was “mostly in the closed configuration”, the “normalized mean current at higher peptide concentrations” value (cardiac RyR2 channel; +40 mV, between about 10 μM and 50 μM peptide) was “fell dramatically” and the “effect on cardiac RyR2 channel activity” value (cardiac RyR2 channel; +40 mV) was “increases and then decreases the activity”. For the same molecule, the “effect on cardiac RyR2 channel activity” value (cardiac RyR2 channel; +40 mV, listed as 20-mer peptide) was “strong inhibition”, the “duration of channel openings” value (cardiac RyR2 channel; −40 mV, 10^−7M cis Ca, versus absence of peptide) was “prolonged channel openings” and the “effect on cardiac RyR2 channel activity” value (cardiac RyR2 channel; −40 mV) was “increases the activity”. For the same molecule, the “effect on cardiac RyR2 channel activity” value (cardiac RyR2 channel; −40 mV, listed as 20-mer peptide) was “significant activation”, the “channel open probability (Po)” value (cardiac RyR2 channel; −40 mV, particularly at 65 nM peptide) was “high open probability” and the RyR2 channel activity (cardiac RyR2 channel; −40 mV, peptide increased to 6.5 μM) was “fell slightly”. The channel openings (cardiac RyR2 channel; −40 mV, within 10 s of adding 65 nM peptide) was “channel openings increased”, the “enhancement of [3H]ryanodine binding to cardiac RyR2 channels” value (cardiac RyR2 channels) was “not to induce Ca^2+ release from cardiac SR, or to enhance [^3H]ryanodine binding” and the “binding to RyR2” value (RyR2) was “binds”.

With TSAQKAKAEERKRRKMSRGL [20-mer peptide of the II-III cytoplasmic loop of skeletal DHPR alpha-1 subunit (Thr671 to Leu690)] the “mean current (I'p/I'c) at 10 nM peptide, -40 mV or +40 mV” value [2] was ~2 fold and the “mean current at -40 mV (increase in 50 µM peptide)” value [2] was 4 fold.

For TSAQKAKAEERKRRKMS[dR]GL [SEQ ID NO: 9 peptide (20-mer of SEQ ID NO: 2 with Arg688 replaced by the D isomer of arginine)], the “mean closed time at +40 mV (decrease)” value [2] was 80 fold, the “mean closed time at -40 mV (decrease)” value [2] was 170 fold and the “mean open time at both potentials (increase)” value [2] was 8 fold. For the same molecule, the “open probability at +40 mV (increase)” value [2] was ~10 fold and the “open probability at -40 mV (increase)” value [2] was ~50 fold.
